Experimental data reported in US7153676B1, “Transacylases of the paclitaxel biosynthetic pathway” (priority 1999, dated 2006).
Several values for one entry are separate records, joined by “and”; a condition that tells them apart may be missing. Identical values can stand only once.

Tests used:
[1] = target: T1, 10-deacetylbaccatin III-10-O-acetyl transferase (TAX6) (Taxus cuspidata, UniProt Q9M6E2); assay type: biochemical; settings: for conversion/acetylation of substrate by TAX6: 10-hydroxyl of 10-deacetylbaccatin III, 5α-hydroxyl of taxadienol
T1 construct: to amplify the putative full-length acetyl transferase gene and incorporate NdeI and XbaI restriction sites; made in house; host or cells: E. coli JM109 (pCWori+)
T1 sequence (Q9M6E2 1-440): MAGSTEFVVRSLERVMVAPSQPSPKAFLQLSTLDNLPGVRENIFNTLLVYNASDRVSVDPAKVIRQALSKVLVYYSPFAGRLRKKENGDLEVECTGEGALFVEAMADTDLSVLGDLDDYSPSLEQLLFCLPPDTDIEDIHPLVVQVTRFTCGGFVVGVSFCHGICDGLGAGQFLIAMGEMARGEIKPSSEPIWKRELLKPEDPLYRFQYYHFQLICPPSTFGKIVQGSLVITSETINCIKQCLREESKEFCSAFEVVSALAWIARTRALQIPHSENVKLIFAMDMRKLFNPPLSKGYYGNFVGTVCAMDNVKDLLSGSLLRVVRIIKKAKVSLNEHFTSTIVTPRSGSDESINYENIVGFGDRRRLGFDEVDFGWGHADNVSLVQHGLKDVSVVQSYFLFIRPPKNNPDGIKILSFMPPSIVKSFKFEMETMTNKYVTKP
Procedure: For the enzyme preparation, E. coli cells transformed with the pCWori+ vector harboring the putative DBAT gene were grown overnight at 37° C. in 5 mL Luria-Bertani medium supplemented with ampicillin, and 1 mL of this inoculum was added to and grown in 100 mL Terrific Broth culture medium (6 g bacto-tryptone, Difco Laboratories, Spark, Md., 12 g yeast extract, EM Science, Cherryhill, N.J., and 2 mL gycerol in 500 mL water) supplemented with 1 mM IPTG, 1 mM thiamine HCl and 50 μg ampicillin/mL. After 24 hours, the bacteria were harvested by centrifugation, resuspended in 20 mL of assay buffer (25 mM Mopso, pH 7.4) and then disrupted by sonication at 0–4° C. The resulting homogenate was centrifuged at 15,000 g to remove debris, and a 1 mL aliquot of the supernatant was incubated with 10-deacetylbaccatin III (400 μM) and [2-^3H]acetyl coenzyme A (0.45μCi, 400 μM) for 1 hour at 31° C. The reaction mixture was extracted with ether and the solvent concentrated in vacuo. The crude product (pooled from five such assays) was purified by silica gel thin-layer chromatography (TLC; 70:30 ethyl acetate:hexane).
The activity of TAX6 (SEQ ID NO: 45) was assayed under standard conditions described in Walker et al., Arch. Biochem. Biophys.

[2] = test system: acetyl CoA:taxadien-5α-ol O-acetyl transacylase; settings: cited from earlier work; for acetylation by the enzyme (substrate selectivity): more advanced paclitaxel precursors; for Km: cosubstrate of the taxadienol acetyl transacylase

Row | SMILES | conversion/acetylation of substrate by TAX6 [1] | acetylation by the enzyme (substrate selectivity) [2] | Km [2] | other results
1 | CC(=O)O[C@@]12CO[C@@H]1C[C@H](O)[C@@]1(C)C(=O)[C@H](O)C3=C(C)[C@@H](O)C[C@@](O)([C@@H](OC(=O)c4ccccc4)[C@H]21)C3(C)C [10-deacetylbaccatin III] | catalyze the conversion | does not acetylate | – | Km [1]: 10 µM; acetylation of the 1β-, 7β-, or 13α-hydroxyl groups by TAX6 ([1]; regioselectivity): does not acetylate
2 | CC(C)(COP(=O)(O)OP(=O)(O)OC[C@H]1O[C@@H](n2cnc3c(N)ncnc32)[C@H](O)[C@@H]1OP(=O)(O)O)[C@@H](O)C(=O)NCCC(=O)NCCS [Co-enzyme A] | – | – | – | inhibition of the enzyme [2]: only weakly inhibited
3 | CC(=O)SCCNC(=O)CCNC(=O)[C@H](O)C(C)(C)COP(=O)(O)OP(=O)(O)OC[C@H]1O[C@@H](n2cnc3c(N)ncnc32)[C@H](O)[C@@H]1OP(=O)(O)O [acetyl CoA] | – | – | 5.5 µM and 6 µM | –
4 | C=C1[C@H]2C[C@@H]3CCC(C)=C(CC[C@]2(C)CC[C@@H]1O)C3(C)C [taxadienol, taxa-4(20),11(12)-dien-5α-ol] | nor does it acetylate | – | 4.2 µM and 4 µM | –
5 | CC(=O)O[C@H]1C(=O)[C@@]2(C)[C@H]([C@H](OC(=O)c3ccccc3)[C@]3(O)C[C@H](O)C(C)=C1C3(C)C)[C@]1(OC(C)=O)CO[C@@H]1C[C@@H]2O [baccatin III] | – | does not acetylate | – | –
